Assay results from US20260374766A1, “METHODS FOR TREATING CANCER” (Antares Therapeutics, Inc., priority 2022, published 2026).
Where two headings read alike, the source gives them in different places.

How the values were obtained:
[1] = target: T1, p53 Y220C mutant protein (amino acid residues 94-293) (Homo sapiens, UniProt P04637, Y220C); assay: Surface Plasmon Resonance (SPR) assay, Kd_kinetic; type: binding; conditions: read-out: SPR P53 Y220C KD kinetic
T1 construct: p53 Y220C mutant protein (amino acid residues 94-293)
T1 sequence (P04637 94-293, stated change not applied): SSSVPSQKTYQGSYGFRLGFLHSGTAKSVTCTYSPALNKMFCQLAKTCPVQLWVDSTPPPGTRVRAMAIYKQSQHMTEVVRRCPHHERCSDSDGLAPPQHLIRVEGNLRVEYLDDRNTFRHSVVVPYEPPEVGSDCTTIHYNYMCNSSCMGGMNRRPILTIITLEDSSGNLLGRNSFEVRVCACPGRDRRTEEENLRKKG
How it was run: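 Binding measured by SPR on a Biacore 8K in running buffer of 50 mM Tris pH 7.5, 100 mM NaCl, 1 mM DTT, 0.01% Brij35, 0.05% Tween-20, 1% DMSO.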

[2] = target: p53 Y220C (Homo sapiens, UniProt P04637, Y220C); assay: Luciferase Reporter Assay (Luc), p53 response element, NClH1299 cells with inducible p53 Y220C; type: cell-based; conditions: luciferase reporter, NClH1299 inducible p53 Y220C, 6 hour; for AC50: read-out: Luc P53 Y220C AC50
How it was run: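 Cells were seeded at 5,000 per well and induced with 0.5 ug/mL doxycycline for 24 hours, then exposed to compound for 6 hours. One-Glo reagent was added, plates shaken 5 minutes at room temperature, and luminescence read immediately.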

[3] = system: NUGC3 p53 Y220C; assay: Cell Proliferation Assay (CellTiter-Glo, CTG), NUGC3 p53 Y220C; type: cell-based; conditions: Homo sapiens, NUGC-3, 120 h, NUGC3 cells, 5 days, CellTiter-Glo
Description: (§1) Inducible p53 Y220C and R273H constructs (Tet-One inducible expression system; Takara) were stably expressed in NClH1299 cells by lentiviral transduction. NUGC3, A549, BxPC3, T3M4, HuH7, HCC2935, MFE296, NClH1299, NClH1299-inducible p53 Y220C, and NClH1299-inducible p53 R273H cell lines were used for cell proliferation assay. 250-500 cells were seeded in each well of 384 plate and then compounds were dispensed into each well using Echo or Tecan. After 5 days of incubation, equal volume of CellTiter-Glo reagent (G7570; Promega) was added into each well and the plate was incubated at room temperature for 10 minutes with shaking. The luminescent signal was measured by PheraStar microplate reader and IC50 was calculated.

[4] = system: H1299 p53 Y220C; assay: Cell Proliferation Assay (CellTiter-Glo, CTG), H1299 p53 Y220C (NClH1299-inducible p53 Y220C); type: cell-based; conditions: Homo sapiens, NCI-H1299, 120 h, NClH1299-inducible p53 Y220C cells, 5 days, CellTiter-Glo
How it was run: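 Cells seeded at 250-500 per well and exposed to compound for 5 days. Viability read by CellTiter-Glo luminescence after 10 min at room temperature; IC50 calculated. H1299 lines carry Tet-One inducible p53 mutant constructs introduced by lentiviral transduction.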

[5] = system: H1299 p53 R273H; assay: Cell Proliferation Assay (CellTiter-Glo, CTG), H1299 p53 R273H (NClH1299-inducible p53 R273H); type: cell-based; conditions: Homo sapiens, NCI-H1299, 120 h, NClH1299-inducible p53 R273H cells, 5 days, CellTiter-Glo
Description: as §1

Compound	Kd ([1]; SPR, p53 Y220C)	AC50 [2]	Emax [2]	IC50 [3]	IC50 [4]	IC50 [5]	Kd [1]
COc1ccc(C(N)=O)nc1NCC#Cc1nn2c(N[C@@H]3CCN(C)C[C@@H]3F)cccc2c1SC(F)(F)F [Example 235]	< 10 nM	750 to 1500 nM	80 to 90%	1500 to 3000 nM	750 to 1500 nM	≥ 10000 nM	
CNC(=O)c1ccc(OC)c(NCC#Cc2nc3c(NC4COC4)cccn3c2SC(F)(F)F)c1 [Example 240]	< 10 nM	< 750 nM	> 90%	< 750 nM	< 750 nM	8000 to 10000 nM	
CNC(=O)c1ccc(OC)c(NCC#Cc2nc3c(N[C@H]4[C@H]5CC[C@@H]4NC5)cccn3c2SC(F)(F)F)c1 [Example 244]	< 10 nM	> 3000 nM	80 to 90%	750 to 1500 nM	1500 to 3000 nM	≥ 10000 nM	
CNC(=O)c1ccc(OC)c(NCC#Cc2nc3c(N[C@@H]4[C@@H]5CC[C@H]4NC5)cccn3c2SC(F)(F)F)c1 [Example 247]	< 10 nM	1500 to 3000 nM	70 to 80%	750 to 1500 nM	1500 to 3000 nM	8000 to 10000 nM	
CNC(=O)c1ccc(OC)c(NCC#Cc2nc3c(N[C@H]4C[C@@H]5CC[C@H]4N5C)cccn3c2SC(F)(F)F)c1 [Example 248]	< 10 nM	750 to 1500 nM	70 to 80%	750 to 1500 nM	750 to 1500 nM	5000 to 8000 nM	
CNC(=O)c1ccc(OC)c(NCC#Cc2nc3c(N[C@@H]4C[C@@H]5CC[C@H]4N5C)cccn3c2SC(F)(F)F)c1 [Example 249]	< 10 nM	750 to 1500 nM	< 70%	750 to 1500 nM	750 to 1500 nM	5000 to 8000 nM	
CNC(=O)c1cc(NCC#Cc2nc3c(N[C@@H]4CCN(C)C[C@@H]4F)cccn3c2SC(F)(F)F)c(OC)nn1 [Example 259]	< 10 nM	< 750 nM	> 90%	< 750 nM	< 750 nM	≥ 10000 nM	
CNC(=O)c1ccc(OC)c(NCC#Cc2nc3c(N[C@@H]4CN(C)C[C@@H]4F)cccn3c2CC(F)(F)F)n1 [Example 262]	< 10 nM	750 to 1500 nM	70 to 80%	750 to 1500 nM	< 750 nM	≥ 10000 nM	
CNC(=O)c1ccc(OC)c(NCC#Cc2nc3c(N[C@@H]4CNC[C@@H]4F)cccn3c2CC(F)(F)F)n1 [Example 263]	< 10 nM	> 3000 nM	70 to 80%	750 to 1500 nM	1500 to 3000 nM	≥ 10000 nM	
CNC(=O)c1cnc(OC)c(NCC#Cc2nc3c(N[C@H]4C[C@@H]5CC[C@H]([C@H]4F)N5C)cccn3c2SC(F)(F)F)c1 [Example 266]	< 10 nM	< 750 nM	70 to 80%	< 750 nM	< 750 nM	≥ 10000 nM	
CNC(=O)c1cnc(OC)c(NCC#Cc2nc3c(N[C@H]4C[C@@H]5CC[C@@H](N5)[C@H]4F)cccn3c2SC(F)(F)F)c1 [Example 267]	< 10 nM	< 750 nM	70 to 80%	< 750 nM	< 750 nM	≥ 10000 nM	
CNC(=O)c1ccc(NCC#Cc2nn3c(N[C@@H]4CCNC[C@@H]4F)cccc3c2SC(F)(F)F)c(OC)c1 [Example 272]	< 10 nM	< 750 nM	80 to 90%	750 to 1500 nM	< 750 nM	5000 to 8000 nM	
CCc1ncc(C(=O)NC)cc1NCC#Cc1nc2c(N[C@@H]3CCN(C)C[C@@H]3F)cccn2c1SC(F)(F)F [Example 273]	< 10 nM	< 750 nM	> 90%	< 750 nM	< 750 nM	≥ 10000 nM	
CNC(=O)c1cnc(C)c(NCC#Cc2nc3c(N[C@@H]4CCN(C)C[C@@H]4F)cccn3c2SC(F)(F)F)c1 [Example 274]	< 10 nM	< 750 nM	> 90%	< 750 nM	< 750 nM	≥ 10000 nM	
CNC(=O)c1ccc(NCC#Cc2nc3c(N[C@@H]4CCOC[C@@H]4F)cccn3c2SC(F)(F)F)c(OC2CN(C)C2)c1 [Example 275, 4-{[3-(8-{[(3R,4R)-3-fluorooxan-4-yl]amino}-3-[(trifluoromethyl)sulfanyl]imidazo[1,2-a]pyridin-2-yl)prop-2-yn-1-yl]amino}-N-methyl-3-[(1-methylazetidin-3-yl)oxy]benzamide]	< 10 nM	< 750 nM	80 to 90%	< 750 nM	< 750 nM	5000 to 8000 nM	
COc1ncc(C(N)=O)cc1NCC#Cc1nn2c(N[C@@H]3CCN(C)C[C@@H]3F)cccc2c1SC(F)(F)F [Example 276]	< 10 nM	< 750 nM	80 to 90%	< 750 nM	< 750 nM	< 5000 nM	
CNC(=O)c1cnc(OC)c(NCC#Cc2nc3c(N[C@@H]4CCN(C)C[C@@H]4F)cccn3c2SC(F)F)c1 [Example 278]	< 10 nM	< 750 nM	70 to 80%	< 750 nM	< 750 nM	< 5000 nM	
COc1cc(C(N)=O)ccc1NCC#Cc1nn2c(N[C@@H]3CCN(C)C[C@@H]3F)cccc2c1SC(F)F [Example 286]	< 10 nM	< 750 nM	> 90%	< 750 nM	< 750 nM	≥ 10000 nM	
CNC(=O)c1ccc(NCC#Cc2cc3c(N[C@@H]4CCNC[C@@H]4F)nccn3c2SC(F)(F)F)cc1 [Example 298]		< 750 nM	> 90%	< 750 nM	< 750 nM	≥ 10000 nM	< 10 nM
COc1cc(C(N)=O)ccc1NCC#Cc1cc2c(N[C@@H]3CCN(C)C[C@@H]3F)nccn2c1SC(F)(F)F [Example 299]	< 10 nM	< 750 nM	> 90%	< 750 nM	< 750 nM	≥ 10000 nM	
CNC(=O)c1ccc(NCC#Cc2cc3c(N[C@@H]4CCN(C)C[C@@H]4F)nccn3c2SC(F)(F)F)c(C#N)c1 [Example 301]	< 10 nM	750 to 1500 nM	> 90%	750 to 1500 nM	750 to 1500 nM	≥ 10000 nM	
CNC(=O)c1ccc(NCC#Cc2cc3c(N[C@@H]4CCN(C)C[C@@H]4F)nccn3c2SC(F)(F)F)c(F)c1 [Example 302]	< 10 nM	< 750 nM	> 90%	< 750 nM	< 750 nM	≥ 10000 nM	
